The test system of one data set is 5HT1B/1D. Particulars: relative to zolmitriptan; cited from earlier work.
For data set [1] the following is noted: cited from earlier work; for AUC0-last: Seaber1997.
The nature of the next data set: clinical. Particulars: human, in vivo. The protocol: The final treatment administered was 3.8 mg on a 10 cm^2 patch using an applicator with 0.52 Joule of application energy in the intracutaneous microneedle system described herein. The products tested were:
(§1) The array was applied to the center of a 5 cm^2 tan adhesive backing to form the patch. The patch was attached to the interior of a white to off-white polycarbonate ring co-molded with a desiccant, and this patch assembly was packaged in a foil pouch.
as §1
The array was applied to the center of a 10 cm^2 tan adhesive backing to form the patch. The patch was attached to the interior of a white to off-white polycarbonate ring co-molded with a desiccant, and this patch assembly was packaged in a foil pouch.
This was a single-center, open-label, randomized five-way crossover study (Part 1) followed by a sequential study of two additional treatments (Parts 2 and 3). After obtaining informed consent and establishing eligibility, each subject received each of the seven study treatments once, followed by in-clinic monitoring and extensive blood sample collection for pharmacokinetic analysis. […] Plasma samples from the initial dosing days were sent to the analytical laboratory for analysis, and tolerability for each of the dose levels was summarized. […] During Part 3, subjects received a single 3.8 mg patch (applied with a 0.52 J applicator) and also completed identical procedures to the previous dosing days. After completion of the seven dosing days, subjects were assessed one final time and dismissed from the study.
Twenty subjects were enrolled in the study, 10 males and 10 females. The subjects mean age was 29 years±3.5 years with a mean BMI of 24.4±3.5.
PK parameters were summarized by treatment group using descriptive statistics (arithmetic means, standard deviations, coefficients of variation, sample size, minimum, maximum, and median).
Graphs of apparent dose linearity and proportionality of PK parameters (AUCt, AUCinf and Cmax) were compiled.

The nature of data set [2]: Solubility of zolmitriptan in 0.1 M acids at 2-8° C. Type of data set: physicochemical. Particulars: de-ionized water. An excerpt:
The suspension was then centrifuged.

Data set [3] can be described thus: In vivo pig study: zolmitriptan distribution in skin by quantitative mass-spectrometry imaging. Particulars: swine skin after 1-hour ADAM wear. An excerpt:
Evidence of zolmitriptan diffusion within the skin was obtained by quantitative mass-specetrometry imaging. Analyses of the surface area of the stratum corneum, epidermis, and dermis indicate that the largest amount of zolmitriptan localized to the dermis.

As usually defined, the Tmax is the time from dosing to the highest level. One may read the Solubility as the dissolved amount per volume that the medium holds. The term Cmax denotes the maximum level reached in the sampled fluid or tissue. As a reminder, the AUC(0-t) is exposure summed from dosing to a finite time, without extrapolation to infinity. Low readings indicate less exposure, high ones more exposure.

SMILES strings stand for the structures. Values after ≈ are worked out from the molar mass of the structure shown. Read-outs that look alike come from different tables or passages of the source.

Turning to `CNCCc1c[nH]c2ccc(C[C@H]3COC(=O)N3)cc12` [N-desmethyl zolmitriptan], the “5HT1B/1D potency, times that of the parent” value in the data set with 5HT1B/1D is 2 to 6 times. The “metabolite concentrations relative to zolmitriptan” value in data set [1] (after zolmitriptan administration) is listed as “about two-thirds”.

In the data set “clinical” (sc), `CNS(=O)(=O)Cc1ccc2[nH]cc(CCN(C)C)c2c1` [Sumatriptan SC] had a t1/2 of 1.14 H.

On to `CN(C)CCc1c[nH]c2ccc(C[C@H]3COC(=O)N3)cc12` [Oral Zolmi], for which, in the data set “clinical” (po, 2.5 mg), the AUC0-last Dose turned out to be 8.6 ng·h/mL/mg.

For the compound `CNS(=O)(=O)Cc1ccc2[nH]cc(CCN(C)C)c2c1` [Sumatriptan], the Tmax result in data set [1] (marketed dosage form) is given as “about 2 hours”. Also, the bioavailability result in data set [1] (oral administration) is “about 15%”.

In data set [2], `CN(C)CCc1c[nH]c2ccc(C[C@H]3COC(=O)N3)cc12` [Zolmitriptan, zolmitriptan] came in with a Solubility of 1300 µg/mL (≈ 4.52 mM). In addition, the “Percentage of Total Zolmitriptan” value turned out to be 95.5 in data set [3] (Dermis/hypodermis), 2.7 in data set [3] (Epidermis) and 1.8 in data set [3] (Stratum corneum).

Take `CNS(=O)(=O)Cc1ccc2[nH]cc(CCN(C)C)c2c1` [SC Suma]: the AUC0-last Dose in the data set “clinical” (sc, 6 mg) was found to be 16.8 ng·h/mL/mg.

Regarding `CN(C)CCc1c[nH]c2ccc(C[C@H]3COC(=O)N3)cc12` [Zolmitriptan 10 mg oral, zolmitriptan], the values for the AUC0-last in data set [1] (females (F)) and in data set [1] (males (M)) were 108.6 ng·h/mL and 84.4 ng·h/mL, respectively.

With `CN(C)CCc1c[nH]c2ccc(C[C@H]3COC(=O)N3)cc12` [Zolmitriptan oral tablet], in the data set “clinical” (both, po, 2.5 mg), the AUCinf is recorded as 27.19 ng · H/mL, the maximum concentration (Cmax) is 3.77 ng/mL and the time to peak (Tmax) was 1.79 h. In addition, in “clinical” (both, po, 2.5 mg, AUC2 hrs), the AUC(0-t) turned out to be 4.72 ng·h/mL. The compound further yielded an area under the curve AUC(0-t) in the data set “clinical” (both, po, 2.5 mg, AUCt) of 22.2 ng·h/mL.

These data come from patent US20230255881A1, “METHOD OF RAPIDLY ACHIEVING THERAPEUTIC CONCENTRATIONS OF TRIPTANS FOR TREATMENT OF MIGRAINES AND CLUSTER HEADACHES” (Emergex USA Corporation, priority 2017, published 2023).
